Laboratory results taken from paper PMC7073886, “Structure–Bioactivity Relationships of Lapatinib Derived Analogs against Schistosoma mansoni” (ACS Medicinal Chemistry Letters, 2020).
Converted amounts (≈) assume the structure as drawn.

How the values were obtained:
[1] = tested on: adult S. mansoni; assay: Phenotypic screen of adult S. mansoni worms, severity scores and descriptors; type: cell-based, Schistosoma mansoni; conditions: for Severity Scores (10 μM) 1 h / Severity Scores (10 μM) 5 h / Descriptors (10 µM) 24 h / Severity Scores (10 μM) 24 h / Descriptors (10 µM) 48 h / Severity Scores (10 μM) 48 h / Descriptors (10 µM) 1 h / Descriptors (10 µM) 5 h: adult S. mansoni; for Severity Scores (10 μM) 1 h / Severity Scores (10 μM) 5 h / Severity Scores (10 μM) 24 h / Severity Scores (10 μM) 48 h: scale 0 (no activity) to 4 (maximal activity); for Descriptors (10 µM) 24 h / Descriptors (10 µM) 48 h / Descriptors (10 µM) 1 h / Descriptors (10 µM) 5 h: phenotypic descriptors; for bioactivity against adult S. mansoni: adult schistosomes; for Severity Scores (10 μM) 1 h / Severity Scores (10 μM) 5 h / Severity Scores (10 μM) 24 h / Severity Scores (10 μM) 48 h / bioactivity against adult S. mansoni: 10 μM
Text: Because the schistosome parasite can present multiple and dynamic phenotypic responses to chemical insult,[16] we employ a constrained nomenclature of descriptors to describe the changes in the parasite as a function of time and concentration (e.g., motility, density, and shape; and in the case of the adult parasite, an inability to adhere to the bottom of the assay dish). These descriptors are converted into severity scores on a scale of 0 (green)–4 (severest/red) that allow for partially quantitative comparisons of compound effects.[1]−[19] […] The descriptors themselves and their respective scores are detailed in the Supporting Information, Table S1. Severity score data are presented in the results (with the corresponding descriptors detailed in the Supporting Information, Tables S2–S8), and eight new analogs developed and synthesized in support of this effort are described. Finally, absorption, distribution, metabolism and excretion (ADME) data of all compounds presented in this work are reported in the Supporting Information, Table S15.
Table S1. Descriptors and associated severity scores used for S. mansoni adults.
R (rounded or shape altered 1
On sides (adults unable to 1
Shrunk (adults are shorter 1
surface (tegument) of adults)
dfailed to create analytical method
Maintenance of the Schistosoma mansoni life cycle (NMRI isolate), the preparation of adult worms (≥ 42-
days-old), and their co-incubation with test compounds were as described.7-9 Phenotypic responses were
visually recorded using a constrained nomenclature and converted to severity scores on a scale from zero
(no activity) to 4 (maximal activity).8, 9 Use of hamsters for maintaining the S. mansoni life-cycle was
approved by the Institutional Animal Care and Use Committee of the University of California San Diego.
The human myelomonocytic cell line THP -1 was grown at 37 °C and 5% CO2 in RPMI-1640 supplemented
with 10% iFBS, 2 mM glutamate, 100 U/mL penicillin and […] streptomycin.
Drug toxicity to HepG2 cells .10 HepG2 cells line were obtained from the American Type Culture
Collection and cultured in Minimal Essential Medium (MEM) supplemented with 0.19% sodium
bicarbonate, 10% Fetal Bovine Serum, 2 mM L -glutamine, 0.1 mM MEM non-essential amino, 0.009
mg/mL insulin, 1.76 mg/mL bovine serum albumin. The viability of the cells was measured using the MTT
(thiazolyl blue reduction) method. Briefly, ninety -six-well plates were seeded with 2.5 × 10^4 cells/well in
170 ml of culture medium and incubated overnight in 5% CO 2 at 37 °C. Cells were exposed to different
experimental compounds in DMSO. After 48 hours incubation, the viability of the cells was assessed using
MTT (thiazolyl blue reduction) as a dose response assay (11 two -fold serial dilutions) to obtain a calculated
IC50 determination. 4-Azaindolo[2,1-b]quinazoline-6,12-dione is used as a toxicity positive control and
each assay plate includes the following 3 additional controls: a) background control: no cells and no drug
was added, b) target control: cells added but no drugs, and c) DMSO control: same as the target control
except the culture media contains 0.6% DMSO. Absorbance was determined in all wells using a Perkin
Elmer, Ensight plate reader. The fifty percent inhibitory concentrations (IC50’s) were determined using
GraphPad Prism nonlinear regr ession (sigmoidal dose -response, variable slope) equation .
ADME Experiment Protocols
Aqueous pH 7.4 Solubility. Compounds were dried down from 10 mM DMSO solutions using centrifugal
evaporation technique. Phosphate buffer (0.1 M pH 7.4) was added and StirStix were inserted in the glass
vials, with shaking then performed at a constant temperature of 25 °C for 20 -24 h. This step was followed
by double centrifugation with a tip wash in between, to ensure that no residues of the dried compounds
interfere. The solutions were diluted before analysis and quantification using LC/MS/MS was performed.

[2] = Human plasma protein binding (equilibrium dialysis); type: in vitro ADME; conditions: read-out: human PPB (plasma protein binding) (converted); for fraction unbound: pH 7.4, 10 µM, 37 °C; for fraction unbound at 10 µM: pH 7.4, 37 °C
[3] = Rat hepatocyte Clint; type: in vitro ADME; conditions: rat hepatocytes, intrinsic clearance; for hepatocyte CLint: read-out: RH CLint
[4] = Log D7.4 shake-flask octanol-water; type: physicochemical; conditions: pH 7.4
Experimental: Log D7.4. Shake-flask octanol-water distribution coefficient was determined at pH 7.4 (Log D7.4). The aqueous solution used is 10 mM sodium phosphate pH 7.4 buffer. The method has been validated for Log D7.4 ranging from -2 to 5.0.
Human Plasma Protein Binding (PPB). PPB was determined using equilibrium dialysis (RED device) to separate free from bound compound. The amount of compound in plasma (10 µM initial concentration) and in dialysis buffer (pH 7.4 phosphate buffer) was measured by LC-MS/MS after equilibration at 37 °C in a dialysis chamber. The fraction unbound (fu) is reported.
Human Liver Microsomal Clint. In vitro intrinsic clearance was determined from human liver microsomes using a standard approach.11 Following incubation and preparation, the samples were analyzed using […]
Rat Hepatocyte Clint. In vitro intrinsic clearance was determined from rat hepatocytes using a standard approach.11 Following incubation and preparation, the samples were analyzed using LC/MS/MS. Refined […]
Calculated LogP and LogD values. Both LogP and LogD predictions are based on a modified version of the method12 where the predicted partition coefficients are composed of the molecules’ atomic increments.
General Chemistry. All starting materials were commercially obtained and were used without further purification, unless specified. Reaction solvents were purified by passage through alumina columns on a purification system manufactured by Innovative Technology (Newburyport, MA). NMR spectra were obtained on Varian NMR systems, operating at 400 or 500 MHz for 1 H acquisitions. LCMS analysis was performed using a Waters AllianceHT e2795 reverse phase HPLC (Waters SunFire C18 4.6 × 50 mm, 3.5 μm column), with a Waters 2996 photodiode array detector scanning from 210 nm to 600 nm, and Waters Micromass ZQ detector (electrospray ionization). Where required, final compounds were purified by preparative reverse phase HPLC (columns Waters Symmetry RP8 30 × 50 mm, 5 μm column, or OBD RP18 30 × 50 mm, 5 μm), with a single wavelength UV−visible detector and Waters Micromass ZQ (electrospray ionization).

[5] = Aqueous pH 7.4 solubility; type: physicochemical; conditions: aqueous buffer, thermodynamic from solid; phosphate buffer pH 7.4, 25 °C, 20-24 h; read-out: aq sol (aqueous solubility)
[6] = Human liver microsomal Clint; type: in vitro ADME; conditions: for microsomal CLint: read-out: HLM Clint
[7] = human liver microsomes, intrinsic clearance

Row | SMILES | fraction unbound [2] | hepatocyte CLint [3] | logD [4] | solubility [5] | fraction unbound at 10 µM [2] | microsomal CLint [6, 7] | improved metabolic stability in comparison to 8a ([6]; relative to 8a) | HLM Clint [6, 7] | RH CLint [3] | Severity Scores (10 μM) 1 h [1] | Severity Scores (10 μM) 5 h [1] | Descriptors (10 µM) 24 h [1] | Severity Scores (10 μM) 24 h [1] | Descriptors (10 µM) 48 h [1] | Severity Scores (10 μM) 48 h [1] | bioactivity against adult S. mansoni [1] | Descriptors (10 µM) 1 h [1] | Descriptors (10 µM) 5 h [1]
1 | COc1ccc(NC(=O)c2ccc(-c3cnc(N4CCN(C)CC4)nc3)cc2O)cc1Cl [7a] |  | 300 µL/min/1e6 cells | 3.8 | 5 µM (≈ 2.27 µg/mL) | < 0.01 | 44 µL/min/mg |  |  |  | 0 | 0 | none | 0 |  |  | complete loss of activity | none | none
2 | COc1ccc(NC(=O)c2ccc(-c3cccc(N4CCOCC4)c3)cc2O)cc1Cl [7d] |  | 300 µL/min/1e6 cells | 4.7 | 0.1 µM (≈ 0.0439 µg/mL) | < 0.01 | 12 µL/min/mg |  |  |  | 2 | 2 | S, on sides, dark | 3 |  | 4 | phenotypic response after 1 h which increased in severity over time | S, on sides | S, on sides
3 | COc1ccc(NC(=O)c2ccc(-c3ccc(S(=O)(=O)N4CCN(C)CC4)cc3)cc2O)cc1Cl [7c] |  | 300 µL/min/1e6 cells | 3.9 | 6 µM (≈ 3.1 µg/mL) | < 0.01 | 62 µL/min/mg |  |  |  | 0 | 3 |  | 2 |  |  | phenotypic response after 5 h | none | 
4 | Cc1ccc2[nH]c3c4ccc(-c5cnc(N6CCCN(C)CC6)nc5)cc4ncc3c2c1 [6c] |  | 7 µL/min/1e6 cells | 5 | 14 µM (≈ 5.92 µg/mL) | < 0.01 | 130 µL/min/mg |  |  |  | 3 | 4 |  | 4 |  | 4 | severe bioactivity after 1 h |  | 
5 | COc1ccc(Nc2ccnc3cc(-c4ccc(S(=O)(=O)N5CCCN(C)CC5)cc4)ccc23)cc1Cl [5e] |  | 15 µL/min/1e6 cells | 4.4 | 0.3 µM (≈ 0.161 µg/mL) | 0.01 | 300 µL/min/mg |  |  |  | 0 | 0 | none | 0 | none | 0 | complete loss of bioactivity | none | none

Further lines, with some results ahead:

Row | fraction unbound [2] | hepatocyte CLint [3] | logD [4] | solubility [5] | fraction unbound at 10 µM [2] | microsomal CLint [6, 7] | improved metabolic stability in comparison to 8a ([6]; relative to 8a) | HLM Clint [6, 7] | RH CLint [3] | SMILES | Severity Scores (10 μM) 1 h [1] | Severity Scores (10 μM) 5 h [1] | Descriptors (10 µM) 24 h [1] | Severity Scores (10 μM) 24 h [1] | Descriptors (10 µM) 48 h [1] | Severity Scores (10 μM) 48 h [1] | bioactivity against adult S. mansoni [1] | Descriptors (10 µM) 1 h [1] | Descriptors (10 µM) 5 h [1]
6 | 0.06 | 36 µL/min/1e6 cells | 3.3 |  |  |  |  |  |  | CCCN1CCCN(c2ncc(-c3ccc4c(Nc5cnccn5)ccnc4c3C)cn2)CC1 [9d] | 1 | 1 | Unc, deg | 4 | Unc, deg | 4 | strongly bioactive by 24 h |  | 
7 | 0.24 | 5.3 µL/min/1e6 cells | 1.6 |  |  |  |  |  |  | Cc1c(-c2cnc(N3CCCNCC3)nc2)ccc2c(Nc3cnccn3)ccnc12 [9e] | 0 | 2 |  | 4 |  | 4 | phenotypic response after 5 h |  | 
8 | 0.18 | 27 µL/min/1e6 cells | 2.5 |  |  |  |  |  |  | Cc1c(-c2cnc(N3CCCN(C)CC3)nc2)ccc2c(Nc3cnccn3)ccnc12 [9b] | 0 | 0 | none | 0 | none | 0 | no bioactivity | none | none
9 | 0.12 | 35 µL/min/1e6 cells | 3.2 |  |  |  |  |  |  | CCCN1CCCN(c2ncc(-c3cc4nccc(Nc5cnccn5)c4cc3C)cn2)CC1 [8d] | 1 | 1 |  | 3 |  | 3 | bioactivity being detected after 1 h |  | 
10 | 0.3 | < 1 µL/min/1e6 cells | 2.3 |  |  |  | 10 fold |  |  | Cc1cc2c(Nc3cnccn3)ccnc2cc1-c1cnc(N2CCCNCC2)nc1 [8e] | 0 | 0 | none | 0 | none | 0 | inactive against schistosomes | none | none
11 |  |  |  | < 1 µM | < 0.01 |  |  | 63 μL/min/mg protein | 44 µL/min/10^6 cells | Fc1cccc(COc2ccc(Nc3ncnc4ccc(-c5cccc(N6CCOCC6)c5)cc34)cc2Cl)c1 [compound 2] |  |  |  |  |  |  |  |  | 
